From ChEMBL document CHEMBL4831557, “Parthenolide Derivatives as PKM2 Activators Showing Potential in Colorectal Cancer” (J Med Chem, 2021)

Assays:
MDA-MB-231 = assay: Cytotoxicity against human MDA-MB-231 cells assessed as reduction in cell viability incubated for 48 hrs by MTT assay; type: functional, cell-based; settings: MDA-MB-231, 48 h
A549 = assay: cells; settings: Homo sapiens, A549, 48 h
HCT-116 = assay: Cytotoxicity against human HCT-116 cells assessed as reduction in cell viability incubated for 48 hrs by MTT assay; type: functional, cell-based; settings: HCT-116, 48 h
U2OS = assay: Cytotoxicity against human U2OS cells assessed as reduction in cell viability incubated for 48 hrs by MTT assay; type: functional, cell-based
HepG2 = assay: Cytotoxicity against human HepG2 cells assessed as reduction in cell viability incubated for 48 hrs by MTT assay; type: functional, cell-based; settings: HepG2, 48 h
HT-29 = assay: Cytotoxicity against human HT-29 cells assessed as reduction in cell viability incubated for 48 hrs by MTT assay; type: functional, cell-based; settings: HT-29, 48 h
SW480 = assay: Cytotoxicity against human SW480 cells assessed as reduction in cell viability incubated for 48 hrs by MTT assay; type: functional, cell-based; settings: SW480, 48 h

Row | IC50 (A549) [µM] | Compound | IC50 (MDA-MB-231) [µM] | IC50 (HCT-116) [µM] | IC50 (U2OS) [µM] | IC50 (HepG2) [µM] | IC50 (HT-29) [µM] | IC50 (SW480) [µM]
1 | 1.34 | C=C1C(=O)O[C@H]2[C@H]1CC/C(COC(=O)c1ccc3nc(C)ccc3c1)=C/CC[C@@]1(C)O[C@@H]21 | 1.29 | 2.78 | 1.68 | 7.79 | 1.61 | 0.79
2 | 9.18 | C/C1=C\CC[C@@]2(C)O[C@H]2[C@H]2OC(=O)/C(=C\c3ccc4nccnc4c3)[C@@H]2CC1 | 7.59 | 4.38 | 3 | 13.8 | 358 | 3.51
3 | 7.49 | C=C1C(=O)O[C@H]2[C@H]1CC/C(CO)=C\CC[C@@]1(C)O[C@@H]21 | 6.01 | 7.5 | 10.7 | 12 | 6.95 | 5.87
4 | 1.58 | C=C1C(=O)O[C@H]2[C@H]1C[C@H](OC(=O)c1ccc3ncccc3c1)C(C)=C1CC[C@@](C)(O)[C@@H]12 | 2.66 | 1.1 | 2.36 | 4.53 | 1.46 | 0.4
5 | 6.69 | C=C1C(=O)O[C@H]2[C@H]1CC[C@@]1(COC(=O)c3ccc4ncccc4c3)O[C@@H]1CC[C@@]1(C)O[C@@H]21 | 6.61 | 1.8 | 6.43 | 7.13 | 0.94 | 2.4
6 | 2.74 | C=C1C(=O)O[C@H]2[C@H]1CC/C(C(=O)Oc1ccc3nccc(Cl)c3c1)=C/CC[C@@]1(C)O[C@@H]21 | 2.25 | 1.29 | 2.21 | 4.03 | 1.22 | 0.59
7 | 14.2 | C=C1C(=O)O[C@H]2[C@H]1CC/C(C(=O)CN1CCN(C(=O)c3ccc4ccccc4n3)CC1C)=C/CC[C@@]1(C)O[C@@H]21 (some centres undefined) | 8.67 | 6.89 | 21.7 | 14 | 6.34 | 8.64
8 | 8.12 | C=C1C(=O)O[C@H]2[C@H]1CC/C(COC(=O)CCc1nc3ccccc3[nH]c1=O)=C/CC[C@@]1(C)O[C@@H]21 | 7.56 | 6.13 | 6.99 | 14.2 | 5.66 | 1.74
9 | 16.8 | C/C1=C\CC[C@@]2(C)O[C@H]2[C@H]2OC(=O)/C(=C\c3ccc4ncccc4c3)[C@@H]2CC1 | 12.5 | 6.55 | 2.78 | 23.6 | 6.66 | 2.71
10 | 9.68 | C=C1C(=O)O[C@H]2[C@H]1CC/C(C(=O)CN1CCCN(C(=O)c3ccc4ccccc4n3)CC1)=C/CC[C@@]1(C)O[C@@H]21 | 7.44 | 4.32 | 10.6 | 5 | 4.31 | 3.13
11 | 17.4 | C=C1C(=O)O[C@H]2[C@H]1CC/C(COC(=O)c1ccc3ncncc3c1)=C/CC[C@@]1(C)O[C@@H]21 | 9.01 | 6.19 | 13.9 | 11.8 | 5.82 | 1.9
12 | 0.92 | C=C1C(=O)O[C@H]2[C@H]1CC/C(COC(=O)c1ccc3ncc(Br)cc3c1)=C/CC[C@@]1(C)O[C@@H]21 | 1.89 | 1.21 | 2.51 | 4.5 | 0.79 | 0.38
13 | 3.49 | C=C1C(=O)O[C@H]2[C@H]1CC/C(COC(=O)c1ccc3ccccc3c1)=C/CC[C@@]1(C)O[C@@H]21 | 3.34 | 3.05 | 3.58 | 8.15 | 2.8 | 2.25
14 | 2.45 | C=C1C(=O)O[C@H]2[C@H]1CC/C(COC(=O)c1cnc3ccccc3c1)=C/CC[C@@]1(C)O[C@@H]21 | 2.27 | 2.7 | 2.58 | 9.53 | 2.43 | 0.33
15 | 1.75 | C=C1C(=O)O[C@H]2[C@H]1CC/C(COC(=O)c1ccc3nc(Cl)ccc3c1)=C/CC[C@@]1(C)O[C@@H]21 | 2.69 | 1.77 | 2.46 | 4.83 | 1.42 | 0.46
16 | 2.2 | C=C1C(=O)O[C@H]2[C@H]1CC/C(COC(=O)c1ccc3nccnc3c1)=C/CC[C@@]1(C)O[C@@H]21 | 2.97 | 2.82 | 3.18 | 6.84 | 2.52 | 1.25

Row | IC50 (A549) [µM] | Compound | IC50 (MDA-MB-231) [µM] | IC50 (HCT-116) [µM] | IC50 (U2OS) [µM] | IC50 (HepG2) [µM] | IC50 (HT-29) [µM] | IC50 (SW480) [µM]
17 | 40.2 | C/C1=C\CC[C@@]2(C)O[C@H]2[C@H]2OC(=O)/C(=C\c3ccc4ncncc4c3)[C@@H]2CC1 | > 100 | 87.7 | 72 | > 100 | > 100 | 51.6
18 | 5.79 | C=C1C(=O)O[C@H]2[C@H]1CC/C(COC(=O)Cc1n[nH]c(=O)c3ccccc13)=C/CC[C@@]1(C)O[C@@H]21 | 5.49 | 2.87 | 8.53 | 8.44 | 2.56 | 2.28
19 | 2.29 | C=C1C(=O)O[C@H]2[C@H]1CC/C(COC(=O)c1cnnc3ccccc13)=C/CC[C@@]1(C)O[C@@H]21 | 3.68 | 3.78 | 4.01 | 12.5 | 4.27 | 1.33
20 | 28.6 | C=C1C(=O)O[C@H]2[C@H]1CC[C@]1(C)O[C@@H]1CC[C@@]1(C)O[C@@H]21 | 15.2 | 13.4 | 13 | 23.5 | 11.4 | 4.3
21 | > 100 | Cn1c2cc([S+](C)[O-])sc2c2cnn(Cc3cccc(N)c3)c(=O)c21 (centres undefined) | > 100 | 89.9 | > 100 | > 100 | > 100 | 93
22 | 60.1 | C/C1=C\CC[C@@]2(C)O[C@H]2[C@H]2OC(=O)C(CN3CCN(C(=O)c4ccc5ccccc5n4)CC3)[C@@H]2CC1 (some centres undefined) | 87 | 64.3 | 23.5 | 69.5 | 54.4 | 23.1
23 | 2.76 | C=C1C(=O)O[C@H]2[C@H]1CC/C(COC(=O)Cc1ccc3ncccc3c1)=C/CC[C@@]1(C)O[C@@H]21 | 4.13 | 1.79 | 6.62 | 5.9 | 1.4 | 1.8
24 | 2.95 | C=C1C(=O)O[C@H]2[C@H]1CC/C(COC(=O)c1ccc3cccnc3c1)=C/CC[C@@]1(C)O[C@@H]21 | 1.75 | 3.13 | 1.3 | 9.84 | 2.8 | 0.33
25 | 4.52 | C=C1C(=O)O[C@H]2[C@H]1CC/C(COC(=O)c1n[nH]c(=O)c3ccccc13)=C/CC[C@@]1(C)O[C@@H]21 | 6.26 | 6.86 | 7.81 | 9.63 | 6.26 | 2.43
26 | 2.75 | CO[C@@]12[C@H](COC(N)=O)C3=C(C(=O)C(C)=C(N)C3=O)N1C[C@@H]1N[C@@H]12 [MITOMYCIN] | 2.89 | 0.55 | 8.45 | 2.27 | 0.44 | 0.79
27 | 2.45 | C=C1C(=O)O[C@H]2[C@H]1CC/C(COC(=O)c1ccc3cnccc3c1)=C/CC[C@@]1(C)O[C@@H]21 | 2.27 | 2.7 | 2.58 | 9.52 | 2.43 | 1.33
28 | 33.5 | C/C1=C\CC[C@@]2(C)O[C@H]2[C@H]2OC(=O)/C(=C\c3ccc4nc[nH]c(=O)c4c3)[C@@H]2CC1 | 55.1 | 32.9 | 24.6 | 86.7 | 28.6 | 34
29 | 14.8 | C=C1C(=O)O[C@H]2[C@H]1CC/C(C(=O)CN1CCN(C(=O)c3ccc4ccccc4n3)CC1)=C/CC[C@@]1(C)O[C@@H]21 | 8.37 | 5.27 | 13 | 7.75 | 4.83 | 3.3
30 | 13.5 | C=C1C(=O)O[C@H]2[C@H]1CC/C(COC(=O)CCc1n[nH]c(=O)c3ccccc13)=C/CC[C@@]1(C)O[C@@H]21 | 7.92 | 4.51 | 6.03 | 7.22 | 4.11 | 1.45
31 | 2.65 | C=C1C(=O)O[C@H]2[C@H]1CC/C(COC(=O)c1cccc3cccnc13)=C/CC[C@@]1(C)O[C@@H]21 | 2.2 | 4.12 | 3.54 | 8.76 | 2.65 | 0.49
32 | 5.12 | C=C1C(=O)O[C@H]2[C@H]1CC/C(COC(=O)c1ccc3nc(O)ccc3c1)=C/CC[C@@]1(C)O[C@@H]21 | 5.1 | 2.25 | 7.62 | 10.6 | 1.72 | 0.73
